According to patent US20110160249A1, “5-LIPOXYGENASE-ACTIVATING PROTEIN INHIBITOR” (priority 2008, published 2011):
Converted amounts (≈) assume the structure as drawn. One block for each molecule: values may come before it.

Columns and labels:
[1] = Thermodynamic Aqueous Solubility by HPLC; type: physicochemical; details: water, 25° C.
Description: Aqueous solubility was determined by suspending sufficient compound in water to give a maximum final concentration of ≧10 mg·ml^−1 of the parent free-form of the compound. The suspension was equilibrated at 25° C. for 24 hours then the pH was measured. The suspension was then filtered through a glass fibre C filter into a 96 well plate. The filtrate was then diluted by a factor of 101. Quantitation was by HPLC with reference to a standard solution of approximately 0.1 mg·ml^−1 in DMSO. Different volumes of the standard, diluted and undiluted sample solutions were injected. The solubility was calculated using the peak areas determined by integration of the peak found at the same retention time as the principal peak in the standard injection.
Analysis was performed on an Agilent HP1100 series system equipped with a diode array detector and using ChemStation software vB.02.01-SR1.

[2] = rat, in vivo, po
[3] = Gravimetric Vapour Sorption (GVS); type: physicochemical; details: after the full sorption/desorption cycle
[4] = test system: allergen-induced early and late phases of lung-volume decline; details: clinical trials; cited from earlier work
[5] = Liquid formulations (oral solutions/suspensions); type: physicochemical; details: certain solvent systems, below pH values of about 9-10
Description: Values of pH reported were estimated based on pH indicating strips. […] Accordingly, provided in certain embodiments herein were formulations having a pH above about 9, above about 10 or of about 10. In certain embodiments, the formulation was buffered at a pH of about 10. All formulations prepared were sonicated for about 10 minutes.

[6] = test system: whole blood ionophore-stimulated leukotriene LTB4; test: Phase I study, whole blood ionophore-stimulated LTB4; type: in vivo, human
Excerpt: Study Design: Single center, double-blind, randomized, placebo-controlled, single ascending dose followed by multiple ascending dose study.
Sample Size: (1) Single Dose Phase: eight (8) subjects (6 active, 2 placebo) per dose level; up to 5 dose levels are planned (a total of 40 subjects if all 5 dose levels are completed); and (2) Multiple Dose Phase: eight (8) subjects (6 active, 2 placebo) per dose level; up to 4 dose levels are planned (a total of 32 subjects if all 4 dose levels are completed).
Formulations: Compound 2 was supplied as an oral powder for reconstitution. Placebo solution matched. […] The placebo differed only in the absence of the active.
The following dosing cohorts were used:
Routes of Administration: All doses were administered orally with approximately 100 mL of water rinse. Subjects were fasted for at least 8 hours prior to dosing and for 2 hours after dosing. For BID dosing in the Multiple Dose Phase, when applicable, subjects were fasted for at least 2 hours prior to the second daily dose.
Plasma concentrations of Compound 1 were determined using a validated LC/MS method. Whole blood ionophore-stimulated leukotriene LTB4 and urinary LTE4 production were assayed by ELISA and mass spectrometry, respectively.
Analysis of Samples: Concentrations of Compound 1 was determined in plasma samples collected from subjects. Similarly, concentrations of LTB4 in plasma and urinary LTE4 were determined in blood and urine samples collected.

chronic asthma = details: clinical studies; cited from earlier work

Appearance of mixture after equilibration for 24 hours [1]: Suspension
Concentration of filtrate (as mg/mL of free base) ([1]; 24 hours, listed as Compound 2 Phase A): >10 mg/mL
plasma exposures [2]: equivalent plasma exposures
XRPD pattern after the GVS experiment [3]: No changes were observed
SMILES: CCOc1ccc(-c2ccc(Cn3c(CC(C)(C)C(=O)[O-])c(SC(C)(C)C)c4cc(OCc5ccc(C)cn5)ccc43)cc2)cn1.[Na+] [Amorphous Phase A]

SMILES: O=C(O)[C@@H](c1ccc(OCc2ccc3ccccc3n2)cc1)C1CCCC1 [BAYX-1005]
efficacy in allergen-challenge studies (allergen-induced early and late phases of lung-volume decline) [4]: show efficacy

solubility in words [5]: sparingly soluble
EC50 ([6]; Homo sapiens, dose range studied, read-out: EC50, plasma concentration vs inhibition of ionophore-stimulated LTB4 production): ~0.07 mg/L (≈ 0.11 µM)
EC90 ([6]; Homo sapiens, dose range studied, read-out: EC90, plasma concentration vs inhibition of ionophore-stimulated LTB4 production): ~0.32 mg/L (≈ 0.502 µM)
SMILES: CCOc1ccc(-c2ccc(Cn3c(CC(C)(C)C(=O)O)c(SC(C)(C)C)c4cc(OCc5ccc(C)cn5)ccc43)cc2)cn1 [Compound 1, 3-[3-(tert-butylsulfanyl)-1-[4-(6-ethoxy-pyridin-3-yl)benzyl]-5-(5-methyl-pyridin-2-yl-methoxy)-1H-indol-2-yl]-2,2-dimethylpropanoic acid]
plasma concentration at which complete inhibition of ionophore-stimulated LTB4 production was reached ([6]; in vivo): 1000 to 1500 ng/mL

SMILES: CC(C)(C)Sc1c(CC(C)(C)C(=O)O)n(Cc2ccc(Cl)cc2)c2ccc(OCc3ccc4ccccc4n3)cc12 [MK-0591]
efficacy in chronic asthma (chronic asthma): shows efficacy
efficacy in allergen-challenge studies (allergen-induced early and late phases of lung-volume decline) [4]: show efficacy

SMILES: CC(C)c1ccc2c(c1)c(SC(C)(C)C)c(CC(C)(C)C(=O)O)n2Cc1ccc(Cl)cc1 [MK-866]
efficacy in allergen-challenge studies (allergen-induced early and late phases of lung-volume decline) [4]: show efficacy

SMILES: CC(c1cc2ccccc2s1)N(O)C(N)=O (centres unmarked) [Zileuton, zileuton]
efficacy in chronic asthma (chronic asthma): exhibits clinical efficacy
efficacy in allergen-challenge studies (allergen-induced early and late phases of lung-volume decline) [4]: not effective
